T1: NPF4.1 (AIT3) (Arabidopsis thaliana, UniProt Q9LSF0)
T1 sequence (Q9LSF0 1-515): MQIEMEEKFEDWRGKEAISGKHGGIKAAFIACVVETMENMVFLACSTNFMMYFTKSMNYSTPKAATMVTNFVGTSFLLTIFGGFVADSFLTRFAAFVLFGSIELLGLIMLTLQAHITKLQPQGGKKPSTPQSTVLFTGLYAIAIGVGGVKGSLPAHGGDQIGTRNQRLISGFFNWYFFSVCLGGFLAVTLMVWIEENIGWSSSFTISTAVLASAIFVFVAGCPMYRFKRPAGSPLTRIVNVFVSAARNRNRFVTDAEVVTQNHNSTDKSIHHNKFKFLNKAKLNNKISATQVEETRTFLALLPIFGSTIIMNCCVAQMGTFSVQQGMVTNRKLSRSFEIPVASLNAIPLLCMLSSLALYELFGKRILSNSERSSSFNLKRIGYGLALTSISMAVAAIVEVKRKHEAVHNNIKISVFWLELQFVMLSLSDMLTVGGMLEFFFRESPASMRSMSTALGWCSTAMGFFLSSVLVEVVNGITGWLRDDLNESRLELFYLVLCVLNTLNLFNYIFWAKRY


Key:
NPF4.1 (AIT3) = molecular target: T1, NPF4.1 (AIT3); assay: competition of GA4 uptake in Xenopus oocytes, LC-MS; format: cell-based; details: 300 uM GA4 with 5 mM JA-Ile
[1] = substrate: C=C1C[C@]23C[C@H]1CC[C@H]2[C@@]12CC[C@H](O)[C@@](C)(C(=O)O1)[C@H]2[C@@H]3C(=O)O; assay: uptake into Xenopus oocytes, LC-MS; format: cell-based, Arabidopsis thaliana; details: pH 5, 60 min incubation, diffusion into non-injected oocytes subtracted, judged by authors a likely overestimation

| inhibition of GA4 uptake at 5 mM (NPF4.1 (AIT3)) | Molecule | Km [1] [µM] |
| --- | --- | --- |
| JA-Ile strongly inhibited GA4 uptake | CC/C=C\C[C@H]1C(=O)CC[C@@H]1CC(=O)N[C@H](C(=O)O)[C@@H](C)CC [JA-Ile] | – |
| – | NPF3 (NPF3.1, AtNPF3.1) (Arabidopsis thaliana) (protein, putative 12 transmembrane domains) MEEQSKNKISEEEKQLHGRPNRPKGGLITMPFIFANEICEKLAVVGFHANMISYLTTQLHLPLTKAANTLTNFAGTSSLTPLLGAFIADSFAGRFWTITFASIIYQIGMTLLTISAIIPTLRPPPCKGEEVCVVADTAQLSILYVALLLGALGSGGIRPCVVAFGADQFDESDPNQTTKTWNYFNWYYFCMGAAVLLAVTVLVWIQDNVGWGLGLGIPTVAMFLSVIAFVGGFQLYRHLVPAGSPFTRLIQVGVAAFRKRKLRMVSDPSLLYFNDEIDAPISLGGKLTHTKHMSFLDKAAIVTEEDNLKPGQIPNHWRLSTVHRVEELKSVIRMGPIGASGILLITAYAQQGTFSLQQAKTMNRHLTNSFQIPAGSMSVFTTVAMLTTIIFYDRVFVKVARKFTGLERGITFLHRMGIGFVISIIATLVAGFVEVKRKSVAIEHGLLDKPHTIVPISFLWLIPQYGLHGVAEAFMSIGHLEFFYDQAPESMRSTATALFWMAISIGNYVSTLLVTLVHKFSAKPDGSNWLPDNNLNRGRLEYFYWLITVLQAVNLVYYLWCAKIYTYKPVQVHHSKEDSSPVKEELQLSNRSLVDE | 500 |
